For data set [1] the following is noted: cited from earlier work.
For a further data set, the system named is rats. The settings on record: two-year study, oral administration; cited from earlier work.
A further data set relates to mouse bone marrow. The settings on record: in vivo; cited from earlier work.
The next data set has as its system rat hepatocyte. The settings on record: cited from earlier work.
The subject of the next data set is rat bone marrow. The settings on record: in vivo; cited from earlier work.
Another data set concerns Chinese hamster cells. The settings on record: long exposure times; cited from earlier work.
A further data set deals with mice. The settings on record: dietary up to 2 years, cited from earlier work.
For data set [2] the following is noted: hypertensive patients; intravenous infusion; cited from earlier work.
For the next data set, the system named is human lymphocytes. The settings on record: cited from earlier work.
Data set [3] can be described thus: Case studies, oral minoxidil in male patients with androgenetic alopecia (blood pressure, heart rate, hair growth). The settings on record: person.
For data set [4] the following is noted: cited from earlier work. The source holds these as a separate data set.

Structures are written as SMILES.

On to `Nc1cc(N2CCCCC2)nc(N)[n+]1[O-]` [minoxidil], for which, in [1] (normotensive healthy volunteers, 2.5 mg, 5 mg, or 10 mg oral), the “effect on blood pressure” value is listed as “little effect on blood pressure”. Further, in data set [1] (primarily conjugation with glucuronic acid), the “fraction of oral dose metabolized” value is “About 90%”. The carcinogenicity findings entry with rats is on record as “no positive findings”. For the same compound, the mutagenicity result with mouse bone marrow, in the data set with rat hepatocyte and with rat bone marrow was “not mutagenic” throughout. The cytogenetic assay result with Chinese hamster cells is recorded as “equivocal”; in the data set with human lymphocytes it was “negative”. Besides, in the data set with mice (females, all dose levels (10, 25, and 63 mg/kg/day)), the “incidence of malignant lymphomas” value is reported as “increased incidence of malignant lymphomas in females”. Also, in the data set with mice (males, 63 mg/kg/day), the “incidence of hepatic nodules” value is “increased incidence of hepatic nodules in males”. For the same compound, the “steady state plasma concentration associated with significant (>5 beats per minute) changes in heart rate” value in data set [2] was “above 20 ng/mL”. Besides, the adverse events result was “No unwanted hair growth or other adverse events were noticed” in data set [3] (0.625 mg four times a day) and “No unwanted hair growth or other adverse events, including any cardiac effects, were noticed” in data set [3] (1.25 mg QID). For the same compound, the “reductions in blood pressure” value in data set [3] (0.625 mg four times a day) is on record as “did not experience significant reductions in blood pressure”. The “temporary decrease in hematocrit, hemoglobin, and erythrocyte count” value in data set [4] (chronic therapy for severe hypertension, initially) was “approximately 7%”. Further, the “patients exhibiting ECG alterations of T waves” value in data set [4] (soon after starting therapy) is given as “approximately 60%”.

(Values after patent US20260053800A1 (Veradermics, Incorporated, priority 2024, published 2026).)
